Data on two compounds can be found in US20150238539A1, “COMPOSITION FOR BRAIN-NEURON PROTECTION AND BRAIN-DISEASE PREVENTION, ALLEVIATION OR TREATMENT COMPRISING MUSKRAT MUSK” (priority 2012, published 2015).

Test [1] relates to male ICR mouse. Nature of the test: Morris water-maze experiment in mice with ethanol-induced memory damage. The test is classed as in vivo. To be noted: oral once a day for 4 days, then ethanol; for Mean escape latency: mean of 3 trials a day, cut-off 120 seconds; for Time spent in quadrant: probe test on last day, escape platform removed. As to the method: (§1) As for the experimental animals, 18 to 20 g of 45 male ICR mouse purchased from DAEHAN Animal Experiment Co., Ltd. were used. Specifically, the animals were classified to include five mice per group, then placed in a cage, sufficiently fed with water and foodstuff, and bred in an animal room wherein the temperature (24 ±1° C.), relative humidity (55±5%) and the light-dark (06:00-18:00, light) were controlled during the experiment period. The animals were classified into nine groups of the non-treated group, the ethanol group, the tacrine group and the groups of PREPARATIONS 1 to 6.
The morris water-maze experiment was carried out to measure the degree affecting the recovery of the spatial perception ability and short-term or long-term memory power in experimental animals.
Prior to the morris water-maze experiment, tacrine and the substances of PREPARATIONS 1 to 6 were orally administered to seven groups except for the non-treated group and the ethanol group once a day. On the 4th day, the last day of administration, tacrine and the substances from Preparations 1 to 6 were administered. After 30 minutes, ethanol which undergoes damage to the memory power of the mouse was orally administered to eight groups except for the non-treated group.
In the morris water-maze apparatus, water (temperature: 22±2° C.) was filled by 32 cm within a tank filled with opaque water (diameter 120 cm, height 45 cm) and an escape platform (diameter 10 cm, height 30 cm) was installed in one section of the quadrant located 2 cm below the surface of the water. The powdered skim milk was added to be invisible. The experiment was conducted for five days. The possibility of going to the escape area by chance by changing the positions of acquisition three times a day at three different positions which were minimized. If animals go to the escape area and stay for more than 10 seconds, the time taken until an escape area was found was set to the escape latency. The mean value of the experiments 3 times a day was set to the mean escape latency. In the morris water-maze test, since the test animals remembered and find out the targeting position, the position of the marker was remained constant during the experiment period so that there was no change in the surrounding environment. In the case where the escape platform was not found within 120 seconds, the experiment animal was induced to the escape platform and stayed for 10 seconds, thereby having the position remembered.
On the last day of the experiment, the escape platform was removed. The probe test for measuring the time spent in platform quadrant was carried out.

For test [2], the system named is male ICR mouse. Nature of the test: Passive avoidance experiment in mice with ethanol-induced memory damage. Type of test: in vivo. Conditions: oral once a day for 4 days; for Time of arrival in the learning test: acquisition trial, ethanol orally 30 minutes after last administration; for Time of arrival in the retention trial: step-through latency 24 hours after learning test, measured up to 300 seconds, then ethanol. As to the method:
as §1
The passive avoidance experiment was performed in order to confirm the effects of the compositions of PREPARATIONS 1 to 6 on each memory and learning. This experiment uses the characteristics that animals intend to enter into the dark instinctively. If the animals intend to enter into the dark, an electrical stimulation is given to the animals to prevent from entering the dark. Thereafter, the short-term memory power against the electrical stimulation was measured.
Four days before the passive avoidance experiment, tacrine and substances PREPARATIONS 1 to 6 were orally administered to seven other groups except for the non-treated group and the ethanol group once a day. On day 4, the last day of administration, tacrine and compositions of PREPARATIONS 1 to 6 were orally administered. After 30 minutes, ethanol which undergoes damage to the memory power of mouse was orally administered to eight groups except for the non-treated group.
The passive avoidance experiment was conducted in the apparatus wherein each room having the same structure and 60 dB or less of noise and including a room with light and a room without light (width 20 cm, length 20 cm, height 20 cm) is connected to the guillotin door (Jungdo Bio & Plant Co. Ltd, Seoul, Korea). The mouse was placed in a bright room with shining light and observed for 10 seconds. Subsequently, the door was opened and the mouse was allowed to enter into the dark room. At this time, the time taken to go into a dark room was measured (Learning Test: acquisition trial). If the mouse enters into the dark room, the door is automatically closed. The electrical stimulation of 0.6 mA was given to the mouse through the stainless grid on the bottom for five seconds.
In order to confirm the effect of recovering the cognitive function of the composition the present invention, influencing on the long-term memory after the learning test, the mouse was placed on the bright side of the room after 24 hours. The time taken to go into the dark room (step-through latency time: time of arrival) was measured up to 300 seconds (retention trial).

As for `Nc1c2c(nc3ccccc13)CCCC2` [Tacrine, tacrine], in the test on male ICR mouse [1], the Mean escape latency came to 56 s and the “Time spent in quadrant” value is on record as 28 s. Besides, in the test on male ICR mouse [2], the “Time of arrival in the learning test” value amounted to 20 s and the “Time of arrival in the retention trial” value worked out at 85 s.
On to `CCO` [Ethanol, ethanol], for which, in the test on male ICR mouse [1], the Mean escape latency came out at 121 s and the “Time spent in quadrant” value came out at 18 s. Besides, in the test with male ICR mouse [2], the “Time of arrival in the learning test” value worked out at 12 s and the “Time of arrival in the retention trial” value stood at 21 s.
